Assay results from article PMC2363166, “Water-soluble aluminium phthalocyanine–polymer conjugates for PDT: photodynamic activities and pharmacokinetics in tumour-bearing mice” (British Journal of Cancer, 1999).

Experiments:
[1] = tested on: EMT-6 mouse mammary tumour cells; assay: Cellular photoinactivation, MTT cell survival after red light; assay type: cell-based; details: 1% FBS, red light 660-700 nm
Description: Among the second-generation photosensitizers (PS) developed for the treatment of neoplastic diseases by photodynamic therapy (PDT) (Kessel, 1996; Ochsner, 1997), metallo-phthalocyanines (MePc) have been proposed (Spikes, 1986; van Lier, 1990; Rosenthal, 1991) as an alternative to Photofrin (PII), the only PS currently approved for clinical use. Their stronger absorption in the red part of the spectrum (molar extinction coefficient, […] at 675 nm), where the depth of light penetration in tissues is twice that obtained at 630 nm with PII (Svaasand, 1984), together with their chemical homogeneity and their lower potential to induce cutaneous photosensitivity (Roberts et al, 1989; Tralau et al, 1989) are major advantages over PII. […] The potential of the water-soluble aluminium sulphophthalocyanine (AlPcS) to generate activated oxygen species (Sharman et al, 1999) and to induce a photo- dynamic response in vivo has been widely evaluated, and a mixture of AlPcS bearing 2-4 sulphonato groups per Pc (Photosense) is used extensively and successfully in clinical PDT in Russia (Zharkova et al, 1994). […] Their photodynamic activities were evaluated in vitro against the EMT-6 mouse mammary tumour cells and in vivo against the EMT-6 and the colon carcinoma Colo-26 tumours implanted intradermally in Balb/c mice. […]

[2] = Biodistribution and plasma clearance after i.v. injection in EMT-6 tumour-bearing mice; assay type: in vivo
Description: (§1) Among the second-generation photosensitizers (PS) developed for the treatment of neoplastic diseases by photodynamic therapy (PDT) (Kessel, 1996; Ochsner, 1997), metallo-phthalocyanines (MePc) have been proposed (Spikes, 1986; van Lier, 1990; Rosenthal, 1991) as an alternative to Photofrin (PII), the only PS currently approved for clinical use. Their stronger absorption in the red part of the spectrum (molar extinction coefficient, […] at 675 nm), where the depth of light penetration in tissues is twice that obtained at 630 nm with PII (Svaasand, 1984), together with their chemical homogeneity and their lower potential to induce cutaneous photosensitivity (Roberts et al, 1989; Tralau et al, 1989) are major advantages over PII. Unsubstituted MePc are not soluble in physiological solvents and their in vivo administration relies upon their incorporation into carriers, such as the liposomal formulation of ZnPc (Isele et al, 1995), or their chemical conversion into water-soluble dyes by the attachment of selected substituents onto the benzene rings of the macrocycle. An inverse relationship was related between the degree of substitution by sulphonato groups of MePc and their hydrophobicity and photodynamic activities, both at the cellular level and in tumour-bearing mice (Brasseur et al, 1987, 1988; Paquette et al, 1988; Berg et al, 1989; Chan et al, 1990, 1991; Margaron et al, 1996a). The potential of the water-soluble aluminium sulphophthalocyanine (AlPcS) to generate activated oxygen species (Sharman et al, 1999) and to induce a photo- dynamic response in vivo has been widely evaluated, and a mixture of AlPcS bearing 2-4 sulphonato groups per Pc (Photosense) is used extensively and successfully in clinical PDT in Russia (Zharkova et al, 1994). […] The unsubstituted AlClPc has, however, attracted less attention even though it has been shown that this compound formulated as a Cremophor emulsion was preferentially retained by a gliosarcoma and was able to induce tumour necrosis in this model (Dereski et al, 1994). […] However, Cremophor oil is known to induce unwanted side-effects in patients (Dye and Watkins, Water-soluble aluminium phthalocyaninepolymer conjugates for PDT: photodynamic activities and pharmacokinetics in tumour-bearing mice N Brasseur, R Ouellet, C La Madeleine and JE van Lier MRC Group in the Radiation Sciences, Faculty of Medicine, Universite de Sherbrooke, Sherbrooke, Quebec, J1H 5N4, Canada Summary The potential use of unsubstituted aluminium phthalocyanine (AlClPc) as a sensitizer for photodynamic therapy (PDT) of cancer has not been fully exploited in spite of its higher efficiency as compared to the sulphonated derivatives. This is largely due to the strong hydrophobic character of AlClPc which renders the material difficult to formulate for in vivo administration. We prepared two water-soluble derivatives of AlClPc by axial coordination of polyethyleneglycol (PEG, MW 2000) or polyvinylalcohol (PVA, MW 13 000-23 000) to the central aluminium ion. Their photodynamic activities were evaluated in vitro against the EMT-6 mouse mammary tumour cells and in vivo against the EMT-6 and the colon carcinoma Colo-26 tumours implanted intradermally in Balb/c mice. Pharmacokinetics were studied in the EMT-6 tumour-bearing mice. […] All three dye preparations induced complete EMT-6 tumour regression in 75-100% of animals at a low drug dose ([…] ) following PDT (400 J cm-2 , 650-700 nm) at 24 h pi. Complete tumour regression in the Colo-26 tumour model was obtained in 30% of mice at a dose of […] . In the non-cured animals, AlPc-PVA induced the most significant tumour growth delay. […] Moreover, in the case of the polyvinylalcohol derivative, axial coordination confers advantageous pharmacokinetics to AlPc, which makes this photosensitizer a valuable, water soluble candidate drug for clinical PDT of cancer. […]

[3] = tested on: Colo-26 tumour; assay: Photodynamic therapy of the Colo-26 tumour implanted i.d. in Balb/c mice; assay type: in vivo; design: Oedema observed 24 h after PDT: key to the marks not given beside the values
Description: as §1

[4] = tested on: EMT-6 tumour; details: 0.25 μmol kg-1 i.v., PDT 24 h p.i., 400 J cm-2, ref Chan et al (1997); cited from earlier work
[5] = 6 h after i.v. 2 μmol kg-1, n = 4
[6] = 24 h after i.v. 2 μmol kg-1, n = 4
[7] = 48 h after i.v. 2 μmol kg-1, n = 4
[8] = 168 h after i.v. 2 μmol kg-1, n = 4
[9] = Colo-26 tumour, 2 μmol kg-1 i.v., PDT 24 h p.i., 400 J cm-2

## [Cl][Al]1[n]2c3c4ccccc4c2N=C2N=C(N=c4c5ccccc5c([n]41)=NC1=NC(=N3)c3ccccc31)c1ccccc12 [AlClPc, aluminium phthalocyanine]
[1]; 1 h incubation, 10 mW cm-2, max 36 J cm-2
  light dose required to kill 90% of cells (LD90): 13.5 J cm-2
[1]; 24 h incubation, 10 mW cm-2
  light dose required to kill 90% of cells (LD90): 4.5 J cm-2
[2]; 1-week pi, i.v. 2 μmol kg-1
  retention by the liver: 73%
[2]; [5]
  Tumour-to-plasma ratio: 0.4
  Tumour-to-skin ratio: 3.5
  Tumour-to-tumour skin ratio: 1.0
[2]; [6]
  Tumour-to-muscle ratio: 16.9
  Tumour-to-plasma ratio: >>
  Tumour-to-skin ratio: 5.3
  Tumour-to-tumour skin ratio: 1.0
[2]; [7]
  Tumour-to-muscle ratio: 19.5
  Tumour-to-plasma ratio: >>
  Tumour-to-skin ratio: 3.3
  Tumour-to-tumour skin ratio: 0.7
[2]; [8]
  Tumour-to-muscle ratio: >>
  Tumour-to-plasma ratio: >>
  Tumour-to-skin ratio: 2.0
  Tumour-to-tumour skin ratio: 0.9
[2]; i.v. 2 μmol kg-1, EMT-6 tumour-bearing mice
  plasma half-life: 2.6 h
[3]; 2 μmol kg-1, PDT 24 h p.i.
  damage to leg muscle: did not induce damage to leg muscle
[3]; Colo-26 tumour, 2 μmol kg-1, non-cured mice
  tumour regrowth delay relative to controls: 1.5 times that of the controls
[3]; Colo-26 tumour, 2 μmol kg-1 i.v., PDT 24 h p.i., 200 mW cm-2, 400 J cm-2
  Tumour response, Regression (flat and necrotic within 3-5 days after PDT): 80 % of mice
[3]; [9]
  Oedema observed 24 h after PDT: ++
  Tumour response, Cure (complete tumour regression at 30 days minimum): 30 % of mice
[3]; Colo-26 tumour, 2 μmol kg-1 i.v., PDT 24 h p.i., non-cured mice only, controls 15.0 (0.3)
  Regrowth to 20 Vo (time for tumour to reach 20 times the volume at the time of PDT): 23.5 (2.1) days (s.e.m.)
[4]
  Oedema observed 24 h after PDT: +
  Tumour response, Cure (complete tumour regression at 21 days): 100 % of mice
  Tumour response, Regression (flat and necrotic within 3-5 days after PDT): 100 % of mice
